Reference: article PMC5218480 (PLoS ONE, 2017)

Tested on: MV-4-11 cells
Assay: Gene expression microarray analysis (Affymetrix PrimeView) and GSEA
Type: cell-based, human
Set-up: RFU PODN (11730768_x_at) / Fold change /veh PODN (11730768_x_at) / RFU LINC00158 (11744669_a_at) / Fold change /veh LINC00158 (11744669_a_at) / RFU DUSP10 (11751237_a_at) / Fold change /veh DUSP10 (11751237_a_at) / RFU ID3 (11757404_x_at) / Fold change /veh ID3 (11757404_x_at) / RFU PLEKHG5 (11737974_s_at) / Fold change /veh PLEKHG5 (11737974_s_at) / RFU LRRC4B (11730491_at) / Fold change /veh LRRC4B (11730491_at) / RFU GIMAP4 (11747438_a_at) / Fold change /veh GIMAP4 (11747438_a_at) / RFU KRT8 (11758183_x_at) / Fold change /veh KRT8 (11758183_x_at) / RFU CNN1 (11734310_a_at) / Fold change /veh CNN1 (11734310_a_at) / RFU VPS37D (11726825_at) / Fold change /veh VPS37D (11726825_at) / RFU C10orf10 (11716522_x_at) / Fold change /veh C10orf10 (11716522_x_at) / RFU KIR2DL2 /// KIR2DL4 /// KIR2DL5A /// KIR2DL5B /// KIR2DS1 /// KIR2DS2 /// KIR2DS3 /// KIR2DS4 /// KIR3DL3 /// KIR3DL3 /// KIR3DS1 (11738374_at) / Fold change /veh KIR2DL2 /// KIR2DL4 /// KIR2DL5A /// KIR2DL5B /// KIR2DS1 /// KIR2DS2 /// KIR2DS3 /// KIR2DS4 /// KIR3DL3 /// KIR3DL3 /// KIR3DS1 (11738374_at) / RFU C1QL1 (11718748_at) / Fold change /veh C1QL1 (11718748_at) / RFU TMPRSS4 (11747572_a_at) / Fold change /veh TMPRSS4 (11747572_a_at) / RFU HAMP (11756126_x_at) / Fold change /veh HAMP (11756126_x_at) / RFU RNFT2 (11725882_a_at) / Fold change /veh RNFT2 (11725882_a_at) / RFU NR4A2 (11747474_a_at) / Fold change /veh NR4A2 (11747474_a_at) / RFU ABCC12 (11746883_a_at) / Fold change /veh ABCC12 (11746883_a_at) / RFU TMEM136 (11760407_x_at) / Fold change /veh TMEM136 (11760407_x_at) / RFU CLDN22 /// WWC2 (11732394_at) / Fold change /veh CLDN22 /// WWC2 (11732394_at) / RFU HLA-DPB1 (11760878_x_at) / Fold change /veh HLA-DPB1 (11760878_x_at) / RFU SPINT1 (11716480_a_at) / Fold change /veh SPINT1 (11716480_a_at) / RFU GAP43 (11754022_s_at) / Fold change /veh GAP43 (11754022_s_at) / RFU A4GNT (11735810_at) / Fold change /veh A4GNT (11735810_at) / RFU PRB3 (11715151_x_at) / Fold change /veh PRB3 (11715151_x_at) / RFU TUBB4B (11761932_at) / Fold change /veh TUBB4B (11761932_at) / RFU CAPN14 (11732068_a_at) / Fold change /veh CAPN14 (11732068_a_at) / RFU TMCC2 (11721928_a_at) / Fold change /veh TMCC2 (11721928_a_at) / RFU IRGQ (11745062_a_at) / Fold change /veh IRGQ (11745062_a_at) / RFU FAM174B (11720279_a_at) / Fold change /veh FAM174B (11720279_a_at) / RFU TMPRSS4 (11748680_a_at) / Fold change /veh TMPRSS4 (11748680_a_at) / RFU FAM212B (11763350_a_at) / Fold change /veh FAM212B (11763350_a_at) / RFU PLEKHG5 (11743358_a_at) / Fold change /veh PLEKHG5 (11743358_a_at) / RFU ZSCAN30 (11745921_a_at) / Fold change /veh ZSCAN30 (11745921_a_at) / RFU CMKLR1 (11741424_a_at) / Fold change /veh CMKLR1 (11741424_a_at) / RFU LOC101060620 /// MAPK8IP1 (11723275_at) / Fold change /veh LOC101060620 /// MAPK8IP1 (11723275_at) / RFU SPTSSB (11747773_x_at) / Fold change /veh SPTSSB (11747773_x_at) / RFU PRSS12 (11739890_at) / Fold change /veh PRSS12 (11739890_at) / RFU BIN1 (11741810_x_at) / Fold change /veh BIN1 (11741810_x_at) / RFU WNT11 (11732464_a_at) / Fold change /veh WNT11 (11732464_a_at) / RFU C10orf10 (11716521_a_at) / Fold change /veh C10orf10 (11716521_a_at) / RFU C5orf56 (11738089_at) / Fold change /veh C5orf56 (11738089_at) / RFU CYB561 (11721691_x_at) / Fold change /veh CYB561 (11721691_x_at) / RFU ANKRD19P (11752326_a_at) / Fold change /veh ANKRD19P (11752326_a_at) / RFU OR2T12 /// OR2T33 /// OR2T8 (11738714_s_at) / Fold change /veh OR2T12 /// OR2T33 /// OR2T8 (11738714_s_at) / RFU VCAN (11748164_a_at) / Fold change /veh VCAN (11748164_a_at) / RFU JSRP1 (11732532_at) / Fold change /veh JSRP1 (11732532_at) / RFU KRTAP10-11 (11738290_x_at) / Fold change /veh KRTAP10-11 (11738290_x_at) / RFU MYO3A (11730013_a_at) / Fold change /veh MYO3A (11730013_a_at) / RFU EBF3 (11725865_a_at) / Fold change /veh EBF3 (11725865_a_at) / RFU CAMK2N1 (11719241_x_at) / Fold change /veh CAMK2N1 (11719241_x_at) / RFU C5orf56 (11738088_a_at) / Fold change /veh C5orf56 (11738088_a_at) / RFU OLFML3 (11715873_a_at) / Fold change /veh OLFML3 (11715873_a_at) / RFU LOC100653217 /// NTM (11731650_a_at) / Fold change /veh LOC100653217 /// NTM (11731650_a_at) / RFU MAPK11 (11762145_a_at) / Fold change /veh MAPK11 (11762145_a_at) / RFU FIZ1 (11724087_x_at) / Fold change /veh FIZ1 (11724087_x_at) / RFU OASL (11726364_x_at) / Fold change /veh OASL (11726364_x_at) / RFU SOX15 (11748057_x_at) / Fold change /veh SOX15 (11748057_x_at) / RFU CD79A (11719716_a_at) / Fold change /veh CD79A (11719716_a_at) / RFU HIST1H1D (11736915_at) / Fold change /veh HIST1H1D (11736915_at) / RFU CASKIN2 (11723855_a_at) / Fold change /veh CASKIN2 (11723855_a_at) / RFU LOC730098 (11760151_x_at) / Fold change /veh LOC730098 (11760151_x_at) / RFU OR4N2 (11742367_at) / Fold change /veh OR4N2 (11742367_at) / RFU PRRT2 (11749266_a_at) / Fold change /veh PRRT2 (11749266_a_at) / RFU SNX32 (11753110_a_at) / Fold change /veh SNX32 (11753110_a_at) / RFU CDHR5 (11726645_a_at) / Fold change /veh CDHR5 (11726645_a_at) / RFU RCAN1 (11760418_a_at) / Fold change /veh RCAN1 (11760418_a_at) / RFU FAM167A (11723789_a_at) / Fold change /veh FAM167A (11723789_a_at) / RFU FAM26E (11764081_at) / Fold change /veh FAM26E (11764081_at) / RFU ISYNA1 (11749810_s_at) / Fold change /veh ISYNA1 (11749810_s_at) / RFU ACY1 (11761880_at) / Fold change /veh ACY1 (11761880_at) / RFU 11764098_at / Fold change /veh 11764098_at / RFU SAMD14 (11745864_x_at) / Fold change /veh SAMD14 (11745864_x_at) / RFU NPB (11741838_a_at) / Fold change /veh NPB (11741838_a_at) / RFU TMPRSS6 (11731388_a_at) / Fold change /veh TMPRSS6 (11731388_a_at) / RFU KRTAP10-2 (11738614_at) / Fold change /veh KRTAP10-2 (11738614_at) / RFU ARHGAP8 /// PRR5-ARHGAP8 (11727945_x_at) / Fold change /veh ARHGAP8 /// PRR5-ARHGAP8 (11727945_x_at) / RFU KRTAP5-7 /// NADSYN1 (11734609_at) / Fold change /veh KRTAP5-7 /// NADSYN1 (11734609_at) / RFU RASL12 (11751679_a_at) / Fold change /veh RASL12 (11751679_a_at) / RFU CDKN2B (11736163_a_at) / Fold change /veh CDKN2B (11736163_a_at) / RFU PRF1 (11729649_at) / Fold change /veh PRF1 (11729649_at) / RFU, ZNF638 /// ZNF638-IT1 / Fold change vs veh, ZNF638 /// ZNF638-IT1 / RFU, PANK3 / Fold change vs veh, PANK3 / RFU, SH3YL1 / Fold change vs veh, SH3YL1 / RFU, ZEB2 / Fold change vs veh, ZEB2 / RFU, NRIP1 / Fold change vs veh, NRIP1 / RFU, PTTG1IP / Fold change vs veh, PTTG1IP / RFU, CAPN2 / Fold change vs veh, CAPN2 / RFU, MED14 / Fold change vs veh, MED14 / RFU, SNORA58 / Fold change vs veh, SNORA58 / RFU, C1orf63 / Fold change vs veh, C1orf63 / RFU, LRRFIP1 / Fold change vs veh, LRRFIP1 / RFU, NDUFAF7 / Fold change vs veh, NDUFAF7 / RFU, SLC12A2 / Fold change vs veh, SLC12A2 / RFU, IBTK / Fold change vs veh, IBTK / RFU, ESF1 / Fold change vs veh, ESF1 / Fold change vs veh, TMEM50B / RFU, TAOK1 / Fold change vs veh, TAOK1 / RFU, ACBD3 / Fold change vs veh, ACBD3 / RFU, TMA16 / Fold change vs veh, TMA16 / RFU, RWDD3 / Fold change vs veh, RWDD3 / RFU, BCAT1 / Fold change vs veh, BCAT1 / RFU, EDEM3 / Fold change vs veh, EDEM3 / RFU, TMEM33 / Fold change vs veh, TMEM33 / RFU, WDR75 / Fold change vs veh, WDR75 / RFU, AHCTF1 / Fold change vs veh, AHCTF1 / RFU, TFRC / Fold change vs veh, TFRC / RFU, ZDHHC17 / Fold change vs veh, ZDHHC17 / RFU, NOM1 / Fold change vs veh, NOM1 / RFU, ARL8B / Fold change vs veh, ARL8B / RFU, ZBTB11 / Fold change vs veh, ZBTB11 / RFU, TAMM41 / Fold change vs veh, TAMM41 / RFU, KIAA1704 /// LOC100996395 / Fold change vs veh, KIAA1704 /// LOC100996395 / RFU, ING1 / Fold change vs veh, ING1 / RFU, TRMT61B / Fold change vs veh, TRMT61B / RFU, FUBP3 / Fold change vs veh, FUBP3 / RFU, TP53 / Fold change vs veh, TP53 / RFU, TNKS2 / Fold change vs veh, TNKS2 / RFU, ZFP14 / Fold change vs veh, ZFP14 / RFU, ACTR2 / Fold change vs veh, ACTR2 / RFU, PPP3R1 / Fold change vs veh, PPP3R1 / RFU, PIK3R1 / Fold change vs veh, PIK3R1 / RFU, HNRNPA1 / Fold change vs veh, HNRNPA1 / RFU, RNF170 / Fold change vs veh, RNF170 / RFU, ZNF28 / Fold change vs veh, ZNF28 / RFU, RNGTT / Fold change vs veh, RNGTT / RFU, OGT / Fold change vs veh, OGT / RFU, BRD1 / Fold change vs veh, BRD1 / RFU, MARS / Fold change vs veh, MARS / RFU, ZNF655 / Fold change vs veh, ZNF655 / RFU, FAHD1 / Fold change vs veh, FAHD1 / RFU, BDP1 / Fold change vs veh, BDP1 / RFU, LRRCC1 / Fold change vs veh, LRRCC1 / RFU, ARID1A / Fold change vs veh, ARID1A / RFU, ZNF146 / Fold change vs veh, ZNF146 / RFU, ZNF330 / Fold change vs veh, ZNF330 / RFU, GPN3 / Fold change vs veh, GPN3 / RFU, C9orf123 / Fold change vs veh, C9orf123 / RFU, N4BP2L2 / Fold change vs veh, N4BP2L2 / RFU, ARFIP1 / Fold change vs veh, ARFIP1 / RFU, FAM179B / Fold change vs veh, FAM179B / RFU, BCL10 / Fold change vs veh, BCL10 / RFU, UHRF1BP1L / Fold change vs veh, UHRF1BP1L / RFU, BET1 / Fold change vs veh, BET1 / RFU, CNOT2 / Fold change vs veh, CNOT2 / RFU, ZNF268 / Fold change vs veh, ZNF268 / Fold change vs veh, ZNF507 / RFU, DGCR2 / Fold change vs veh, DGCR2 / RFU, WDSUB1 / Fold change vs veh, WDSUB1 / Fold change vs veh, HSP90B1 /// MIR3652 / RFU, ADSS / Fold change vs veh, ADSS / RFU, GK / Fold change vs veh, GK / RFU, ZNF148 / Fold change vs veh, ZNF148 / RFU, TAF9 / Fold change vs veh, TAF9 / RFU, SLC1A5 / Fold change vs veh, SLC1A5 / RFU, SLMO2 / Fold change vs veh, SLMO2 / RFU, ABCC4 / Fold change vs veh, ABCC4 / RFU, LOC101060439 /// RAP1B / Fold change vs veh, LOC101060439 /// RAP1B / RFU, RFX7 / Fold change vs veh, RFX7 / RFU, GTPBP10 / Fold change vs veh, GTPBP10 / RFU, CNEP1R1 / Fold change vs veh, CNEP1R1 / RFU, BIVM-ERCC5 /// ERCC5 / Fold change vs veh, BIVM-ERCC5 /// ERCC5 / RFU, ILF3 / Fold change vs veh, ILF3 / RFU 11762660_at / Fold change /veh 11762660_at / RFU VCAN (11757783_s_at) / Fold change /veh VCAN (11757783_s_at) / RFU DDX43 (11728927_at) / Fold change /veh DDX43 (11728927_at) / RFU KRT8 (11758188_x_at) / Fold change /veh KRT8 (11758188_x_at) / RFU NKD1 (11759106_at) / Fold change /veh NKD1 (11759106_at) / RFU SRD5A1 (11742802_a_at) / Fold change /veh SRD5A1 (11742802_a_at) / RFU TPSAB1 /// TPSB2 (11721975_s_at) / Fold change /veh TPSAB1 /// TPSB2 (11721975_s_at) / RFU GSTM3 (11746129_a_at) / Fold change /veh GSTM3 (11746129_a_at) / RFU IL23R (11737362_x_at) / Fold change /veh IL23R (11737362_x_at) / RFU TMEM51 (11727254_a_at) / Fold change /veh TMEM51 (11727254_a_at) / RFU PIWIL2 (11732686_x_at) / Fold change /veh PIWIL2 (11732686_x_at) / RFU ORM1 (11744905_x_at) / Fold change /veh ORM1 (11744905_x_at) / RFU CCDC152 (11743942_at) / Fold change /veh CCDC152 (11743942_at) / RFU ECM1 (11717891_a_at) / Fold change /veh ECM1 (11717891_a_at) / RFU IL23R (11748794_a_at) / Fold change /veh IL23R (11748794_a_at) / RFU TNFAIP8L3 (11732012_x_at) / Fold change /veh TNFAIP8L3 (11732012_x_at) / RFU MBOAT4 (11741988_at) / Fold change /veh MBOAT4 (11741988_at) / RFU 11764193_at / Fold change /veh 11764193_at / RFU TMEM53 (11763286_at) / Fold change /veh TMEM53 (11763286_at) / RFU MAGEB2 (11727129_at) / Fold change /veh MAGEB2 (11727129_at) / RFU TMEM200A (11744735_a_at) / Fold change /veh TMEM200A (11744735_a_at) / RFU CCDC152 (11751479_a_at) / Fold change /veh CCDC152 (11751479_a_at) / RFU FAM211A (11726209_a_at) / Fold change /veh FAM211A (11726209_a_at) / RFU RGS16 (11746705_a_at) / Fold change /veh RGS16 (11746705_a_at) / RFU VCAN (11755009_s_at) / Fold change /veh VCAN (11755009_s_at) / RFU RHOB (11743442_s_at) / Fold change /veh RHOB (11743442_s_at) / RFU RGS16 (11720943_a_at) / Fold change /veh RGS16 (11720943_a_at) / RFU RGS16 (11720944_at) / Fold change /veh RGS16 (11720944_at) / RFU, VPS4B / Fold change vs veh, VPS4B / RFU, CREB1 / Fold change vs veh, CREB1 / RFU, DNAJC13 / Fold change vs veh, DNAJC13 / RFU, GNAQ / Fold change vs veh, GNAQ / RFU, CDK5R1 / Fold change vs veh, CDK5R1 / RFU, ZRANB3 / Fold change vs veh, ZRANB3 / RFU, CUL4A / Fold change vs veh, CUL4A / RFU, CCNY / Fold change vs veh, CCNY / RFU, UFL1 / Fold change vs veh, UFL1 / RFU, COG3 / Fold change vs veh, COG3 / RFU, DIAPH2 / Fold change vs veh, DIAPH2 / RFU, SKA2 / Fold change vs veh, SKA2 / RFU, AFF3 / Fold change vs veh, AFF3 / RFU, LMF1 / Fold change vs veh, LMF1 / RFU, IPO11 / Fold change vs veh, IPO11 / RFU, DFFB / Fold change vs veh, DFFB / RFU, FOXP1 / Fold change vs veh, FOXP1 / RFU, CARD8 / Fold change vs veh, CARD8 / RFU, STRN3 / Fold change vs veh, STRN3 / RFU, ADK / Fold change vs veh, ADK / RFU, RASSF2 / Fold change vs veh, RASSF2 / RFU, WIPF1 / Fold change vs veh, WIPF1 / RFU, LARP1B / Fold change vs veh, LARP1B / RFU, RASA1 / Fold change vs veh, RASA1 / RFU, RB1 / Fold change vs veh, RB1 / RFU, PPFIA1 / Fold change vs veh, PPFIA1 / RFU, MAT2A / Fold change vs veh, MAT2A / RFU, CCT5 / Fold change vs veh, CCT5 / RFU, WDR92 / Fold change vs veh, WDR92 / RFU, CUX1 / Fold change vs veh, CUX1 / RFU, TTC7A / Fold change vs veh, TTC7A / RFU, TMEM135 / Fold change vs veh, TMEM135 / RFU, DEPTOR / Fold change vs veh, DEPTOR / RFU, CPM / Fold change vs veh, CPM / RFU, DNAJB6 / Fold change vs veh, DNAJB6 / RFU, CACNA2D3 / Fold change vs veh, CACNA2D3 / RFU, DTX4 / Fold change vs veh, DTX4 / RFU, TFCP2 / Fold change vs veh, TFCP2 / RFU, GMCL1 /// GMCL1P1 / Fold change vs veh, GMCL1 /// GMCL1P1 / RFU, AEBP2 / Fold change vs veh, AEBP2 / RFU, SNHG1 /// SNORD22 /// SNORD25 /// SNORD26 /// SNORD27 /// SNORD28 /// SNORD29 /// SNORD31 / Fold change vs veh, SNHG1 /// SNORD22 /// SNORD25 /// SNORD26 /// SNORD27 /// SNORD28 /// SNORD29 /// SNORD31 / Fold change (Aza/veh), C12orf56 (ProbeSet 11735607_a_at) / Fold change (ACY-1035/veh), C12orf56 (ProbeSet 11735607_a_at) / Fold change (Aza/veh), FGFR1OP (ProbeSet 11751329_s_at) / Fold change (ACY-1035/veh), FGFR1OP (ProbeSet 11751329_s_at) / Fold change (Aza/veh), VPS36 (ProbeSet 11739960_a_at) / Fold change (ACY-1035/veh), VPS36 (ProbeSet 11739960_a_at) / RFU SYPL1 (11715823_x_at) / Fold change /veh SYPL1 (11715823_x_at) / RFU IGFBP7 (11715501_s_at) / Fold change /veh IGFBP7 (11715501_s_at) / RFU REEP3 (11722064_at) / Fold change /veh REEP3 (11722064_at) / RFU IGLL1 (11728026_x_at) / Fold change /veh IGLL1 (11728026_x_at): dose or concentration left out as unconfirmed
Details: ProbeSet 11726661_s_at; LIST B

## Nc1ncn([C@@H]2O[C@H](CO)[C@@H](O)[C@H]2O)c(=O)n1 [azacitidine]
  Fold change vs veh, GPN3: 0.91
